From ChEMBL document CHEMBL3091337, “Novel piperidinylamino-diarylpyrimidine derivatives with dual structural conformations as potent HIV-1 non-nucleoside reverse transcriptase inhibitors” (Bioorg Med Chem Lett, 2013)
Counter-ions that a name gives are not always drawn.

Experiments:
[1] = Cytotoxicity against human MT4 cells after 5 days by MTT assay; format: cell-based
[2] = system: Human immunodeficiency virus 1; experiment: Antiviral activity against HIV1 3B infected in human MT-4 cells assessed as protection against virus-induced cytopathicity after 5 days by MTT assay; format: functional, organism-based; conditions: Human immunodeficiency virus 1, 3B, MT4, 120 h
[3] = system: Human immunodeficiency virus 1; experiment: Antiviral activity against drug-resistant HIV1 RES056 harboring reverse transcriptase K103N/Y181C double mutant infected in human MT-4 cells assessed as protection against virus-induced cytopathicity after 5 days by MTT assay; format: functional, organism-based; conditions: Human immunodeficiency virus 1, RES056, MT4, 120 h
[4] = Selectivity index, ratio of CC50 for human MT4 cells to EC50 for HIV1 3B; format: toxicity, cell-based; conditions: read-out: Ratio CC50/EC50
[5] = Selectivity index, ratio of CC50 for human MT4 cells to EC50 for drug-resistant HIV1 RES056 harboring reverse transcriptase K103N/Y181C double mutant; format: toxicity, cell-based; conditions: read-out: Ratio CC50/EC50
[6] = target: Human immunodeficiency virus type 1 reverse transcriptase (Human immunodeficiency virus 1, UniProt Q72547); experiment: Inhibition of recombinant HIV1 reverse transcriptase using poly rA:dT as template/primer after 1 hr by ELISA

Cc1ccnc2c1NC(=O)c1cccnc1N2C1CC1 [NEVIRAPINE]
CC50 at 120 h [1]: > 15 µM | EC50 [2]: 0.17 µM | EC50 [3]: 2.5 µM

Cc1cc(C#N)cc(C)c1Oc1cc(NC2CCNCC2)nc(Nc2ccc(C#N)cc2)n1
selectivity ratio [4]: 112 | CC50 at 120 h [1]: 4.2 µM | EC50 [2]: 0.038 µM | selectivity ratio [5]: 4 | EC50 [3]: 0.95 µM

Cc1cc(C#N)cc(C)c1Oc1cc(NC2CCN(Cc3ccc(S(C)(=O)=O)cc3)CC2)nc(Nc2ccc(C#N)cc2)n1
selectivity ratio [4]: > 3550 | CC50 at 120 h [1]: > 206 µM | EC50 [2]: 0.058 µM | selectivity ratio [5]: 1 | EC50 [3]: > 206 µM

Cc1cc(C#N)cc(C)c1Oc1cc(NC2CCN(Cc3ccncc3)CC2)nc(Nc2ccc(C#N)cc2)n1
selectivity ratio [4]: 2140 | CC50 at 120 h [1]: 100 µM | EC50 [2]: 0.047 µM | selectivity ratio [5]: 22 | EC50 [3]: 4.6 µM | IC50 [6]: 33 µM

O=C1Nc2ccc(Cl)cc2[C@@](C#CC2CC2)(C(F)(F)F)O1 [EFAVIRENZ]
CC50 at 120 h [1]: > 6.3 µM | EC50 [2]: 0.007 µM

Cc1cc(C)c(Oc2cc(NC3CCN(Cc4ccc(S(C)(=O)=O)cc4)CC3)nc(Nc3ccc(C#N)cc3)n2)c(C)c1
selectivity ratio [4]: 934 | CC50 at 120 h [1]: 124 µM | EC50 [2]: 0.13 µM | selectivity ratio [5]: ≤ 8 | EC50 [3]: ≥ 16 µM

Cc1cc(C)c(Oc2cc(NC3CCNCC3)nc(Nc3ccc(C#N)cc3)n2)c(C)c1
selectivity ratio [4]: 69 | CC50 at 120 h [1]: 9.6 µM | EC50 [2]: 0.14 µM | selectivity ratio [5]: ≤ 5 | EC50 [3]: ≥ 1.8 µM

Cc1cc(C#N)cc(C)c1Oc1cc(NC2CCN(Cc3ccc(S(N)(=O)=O)cc3)CC2)nc(Nc2ccc(C#N)cc2)n1
selectivity ratio [4]: 93 | CC50 at 120 h [1]: 12 µM | EC50 [2]: 0.13 µM | selectivity ratio [5]: 3 | EC50 [3]: 3.9 µM

Cc1cc(C)c(Oc2cc(NC3CCN(Cc4ccc(S(N)(=O)=O)cc4)CC3)nc(Nc3ccc(C#N)cc3)n2)c(C)c1
selectivity ratio [4]: 61 | CC50 at 120 h [1]: 11 µM | EC50 [2]: 0.19 µM | selectivity ratio [5]: < 1 | EC50 [3]: > 28 µM

Cc1cc(C)c(Oc2cc(NC3CCN(Cc4ccncc4)CC3)nc(Nc3ccc(C#N)cc3)n2)c(C)c1
selectivity ratio [4]: 44 | CC50 at 120 h [1]: 11 µM | EC50 [2]: 0.24 µM | selectivity ratio [5]: < 1 | EC50 [3]: > 11 µM

CC(C)Nc1cccnc1N1CCN(C(=O)c2cc3cc(NS(C)(=O)=O)ccc3[nH]2)CC1 [DELAVIRDINE MESYLATE]
selectivity ratio [4]: > 227 | CC50 at 120 h [1]: > 36 µM | EC50 [2]: 0.13 µM | selectivity ratio [5]: 1 | EC50 [3]: > 36 µM

Cc1cc(C)c(Nc2cc(NC3CCN(Cc4ccc(S(N)(=O)=O)cc4)CC3)nc(Nc3ccc(C#N)cc3)n2)c(C)c1
selectivity ratio [4]: 83 | CC50 at 120 h [1]: 6.4 µM | EC50 [2]: 0.077 µM | selectivity ratio [5]: < 1 | EC50 [3]: > 6.4 µM
